Laboratory results from patent US11072602B2, “Antidiabetic heterocyclic compounds” (Merck Sharp & Dohme Corp., priority 2016, dated 2021).
Like-named read-outs stand apart in the source and are kept apart here.

Biological target: T1, human GPR40 (Homo sapiens, UniProt O14842)
T1 construct: expressed in transfected cells
Experiment: Inositol Phosphate Turnover (IP1) Assay 2
Format: cell-based
Method: Human GPR40 stable cell-lines were generated in HEK cells. The expression plasmids were transfected using lipofectamine (Life Technologies) following manufacturer's instructions. Stable cell-lines were generated following drug selection and single cell cloning.
The assay is performed in 384-well format. HEK cells stably expressing human GPR40 are plated at 15,000 cells per well in growth medium (DMEM/10% fetal calf serum). Cell plates are then incubated 16 hours at 37 degrees in a 5% CO2 incubator.
Measurement of Inositol Phosphate Turnover (IP1) is performed using the CisBio IP-One kit (Part number 62IPAPEB). After the 16 hour incubation, the cells are washed with HEPES buffer and 10 ul of stimulation buffer (prepared as described in the kit) is added to each well. In a separate plate, compounds are diluted in DMSO (400-fold over the final concentration in the assay well) and 25 nl is acoustically transferred to the appropriate well in the assay cell plate. The plates are then incubated for 60 minutes at 37 degrees. 10 ul of detection buffer (also prepared as described in the IP-One kit) is added to each well and the plates are incubated for 60 minutes in the dark. The plates are then read in a Perkin Elmer EnVision or equivalent reader able to measure FRET. Fluorescent ratio of emission at 665 and 620 nm is then converted to IP1 concentration by back calculating from an IP1 standard curve prepared at the time of the assay.

[1] = HEK cells stably expressing human GPR40, 15,000 cells per well, CisBio IP-One kit, read-out: Human IP1 (nM), Inositol Phophate Turnover (IP1) Assay 2 EC50 values
[2] = HEK cells stably expressing human GPR40, read-out: EC50 values in the Inositol Phophate Turnover (IP1) Assay 2

T1 sequence (O14842 whole entry): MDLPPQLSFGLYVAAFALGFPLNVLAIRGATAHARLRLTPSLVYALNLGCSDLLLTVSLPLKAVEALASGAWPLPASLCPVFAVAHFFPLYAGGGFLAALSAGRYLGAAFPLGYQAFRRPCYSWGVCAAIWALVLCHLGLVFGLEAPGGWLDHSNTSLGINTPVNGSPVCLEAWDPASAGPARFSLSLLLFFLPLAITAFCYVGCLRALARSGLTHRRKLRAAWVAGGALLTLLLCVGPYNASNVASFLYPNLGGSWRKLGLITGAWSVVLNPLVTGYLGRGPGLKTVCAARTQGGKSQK

EC50 [1] [nM]	EC50 [2] [nM]	Compound
38.5	< 6500	C[C@H](C(=O)O)[C@H](c1ccc2c(c1)OC(C1[C@@H]3COC[C@H]1CN(Cc1cc(C(F)(F)F)ccc1C(F)(F)F)C3)CC2)C1CC1 (stereo partly drawn) [Example 40, (2S,3R)-3-(2-((1R,5S)-7-(2,5-bis(trifluoromethyl)benzyl)-3-oxa-7-azabicyclo[3.3.1]nonan-9-yl)chroman-7-yl)-3-cyclopropyl-2-methylpropanoic acid]
141	< 6500	C[C@H](C(=O)O)[C@H](c1ccc2c(c1)OC(C1CC3(C1)CN(c1ncccc1C(F)(F)F)C3)CC2)C1CC1 (single isomer, unassigned) [Example 1, (2S,3R)-3-cyclopropyl-2-methyl-3-((R or S)-2-(2-(3-(trifluoro-methyl)pyridin-2-yl)-2-azaspiro[3.3]heptan-6-yl)chroman-7-yl)propanoic Acid]
